Experimental findings from patent publication US20220274983A1, “JAK KINASE INHIBITOR AND USE THEREOF” (JIANGSU CAREPHAR PHARMACEUTICAL CO., LTD., priority 2019, published 2022) are described below.

For data set [1] the following is noted: rat, in vivo, 2 mg/kg.
Description: (§1) Lewis rats (female, 10-12 weeks old) were obtained from Beijing Vital River Laboratory Animal Technology Co., Ltd. The rats were on a light and dark alternation for 12 h, and the environment was kept at a temperature of 23±2° C. and a humidity of 40-70%.
(§2) Type II collagen solution (2 mg/mL) was prepared with 0.05 M acetic acid solution to allow to be fully dissolved, and placed overnight in the dark at 4° C. During the test, 2 mg/mL type II collagen (C II) solution and 4 mg/mL complete Freund's adjuvant (CFA) solution were mixed in equal volumes under ice bath conditions to fully emulsify. On day 0, an emulsion prepared by mixing equal volumes of C II (2 mg/mL) and CFA (4 mg/mL) was injected intracutaneously into the base of the tail of experimental rats for primary immunization, and on day 7, secondary booster immunization was performed.
(§3) The therapeutic effect of the test compound was tested in a rat CIA model. The rats were randomly divided into groups with 8 animals in each group. All animals were immunized on day 0 and boosted on day 7.
(§4) Therefore, the differences in body weight and foot volume after the onset of arthritis compared with the negative group, respectively, can be used to evaluate the therapeutic effect in the rat model. The experimental data were expressed as Mean±SEM; the data between the two groups was tested by unpaired t-test and p<0.05 was considered as a significant difference.
Data set [2] concerns rat CIA model. The data set can be described thus: Arthritis index (AI) of extremities in rat CIA model.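 Note: rats immunized with type II collagen plus complete Freund's adjuvant on day 0, boosted day 7, groups of 8, each paw graded 0-4 for swelling or redness, higher means worse.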 The note with it: CIA rats, 2 mg/kg oral gavage once daily for 2 w, score 0-16.
Description: as §1, §2, §3
Foot volume was scored for the swelling of four toes at the same time, the score for each foot was 0-4, and the highest score for each rat was 16. 0—no swelling, normal appearance; 1—mild swelling or redness of the ankle joint, wrist joint or finger joint; 2—moderate swelling or redness of the ankle joint, wrist joint or finger joint; 3—severe swelling or redness of the ankle joint, wrist joint or finger joint; 4—very severe swelling or redness of the ankle joint, wrist joint or finger joint.
Data set [3] deals with rat CIA model. As to the kind of experiment: Hindfoot foot volume in rat CIA model. Type of data set: in vivo, Lewis rats. Conditions: CIA rats, hindfoot, 2 mg/kg oral gavage once daily for 2 w.
Description: as §1, §2, §3, §4

Structures can show the parent of a compound that is named as a salt.

In the case of `C[C@@H]1CCN(C(=O)CC#N)C[C@@H]1N(C)c1ncnc2[nH]ccc12` [Tofacitinib, tofacitinib citrate, reference compound], in data set [1], the “body weight course, in words” value is on record as “increased slightly on days 11-17, but then fell back”. The “Arthritis index/Day” value in data set [2] (day 0) is recorded as 0 ± 0; in data set [2] (day 8) it was 0 ± 0; in data set [2] (day 11) it was 0.63 ± 0.32; in data set [2] (day 14) it was 3.75 ± 0.77; in data set [2] (day 17), 5.25 ± 0.62; in data set [2] (day 21), 8.75 ± 0.59. In addition, the entries for the “Arthritis index/Day” value in data set [2] (day 24) and in data set [2] (day 28) were 8.75 ± 0.73 and 7.88 ± 0.58, respectively. Moreover, the “Foot volume (ml)/Day” value in data set [3] (day 0) was 2.637 ± 0.020 mL; in data set [3] (day 8) it was 2.619 ± 0.019 mL; in data set [3] (day 11), 2.646 ± 0.045 mL; in data set [3] (day 14) it was 3.848 ± 0.333 mL; in data set [3] (day 17) it was 4.636 ± 0.306 mL; in data set [3] (day 21), 4.710 mL. Also, the “Foot volume (ml)/Day” value was determined as 4.509 mL in data set [3] (day 24) and 4.125 mL in data set [3] (day 28).
